Results published in US8337835B2, “Use of an endogenous ligand for peroxisome proliferator activated receptor alpha to treat liver disorders” (priority 2009, dated 2012).

Test system: PPARα target gene (ACO and CPT-1) expression
Experiment: PPARα target gene (ACO and CPT-1) expression by quantitative RT-PCR in Hepa 1-6 cells
Assay type: cell-based
Conditions: Hepa 1-6 mouse hepatoma cells, 24 h, serum-free DMEM
Method: RT-PCR gene expression analysis and binding assays were employed to address this objective. Wy14,643, 16:0/18:1-GPC, and 18:1/16:0-GPC on PPARα target gene (ACO and CPT-1) expression was measured by quantitative RT-PCR in Hepa 1-6 cells treated for 24 h as in FIG. 6A. Results are mean±SEM of 9 separate experiments. *, P<0.05 compared to control (Ctrl, 80% PBS/20% DMSO).
The C57BL/6 mouse hepatoma cell line Hepa 1-6 (ATCC, CRL-1830) was expanded in DMEM with 10% fetal bovine serum. For experiments, cells were cultured to 50-60% confluence, washed twice with PBS, and the medium was changed to serum-free DMEM supplemented with the various types and concentrations of phosphatidylcholine (sonicated to homogeneity in PBS/1% ethanol/4% fatty acid-free BSA), Wy14,643 (dissolved in 80% PBS/20% DMSO), or vehicle-only solutions. 24 h later, cells were washed, RNA prepared, and ACO and CPT-1 expression levels were determined by quantitative RT-PCR (see FIG. 6). For siRNA experiments, 50-60% confluent cells were treated with siRNAs or their scrambled controls (all diluted in PBS) for 72 h. Following the 72 h siRNA treatment, another set of cells received 16:0/18:1-GPC (using a concentration based on dose-response experiments) for an additional 24 h. Stealth™ siRNA oligonucleotides were used to inhibit the gene expression of mouse ChPT1 ([…]) (SEQ ID NO: 1) and CEPT1 ([…]) (SEQ ID NO: 2) were from Invitrogen (Carlsbad, Calif.).
Total RNA was extracted from Hepa 1-6 cells and liver using Trizol (Invitrogen) and treated with DNase I (RNase-free, Roche Molecular Biochemicals). Reverse transcription to cDNA and real-time quantitative PCR were performed using previously published procedures and primer-probe sequences for ACO and CPT-1 (Chakravarthy et al., 2005). […] Relative mRNA levels were calculated using both the comparative CT and standard curve methods normalized to ribosomal protein L32, an invariant internal control. […]

CCCCCCCC/C=C\CCCCCCCC(=O)OC[C@H](COP(=O)([O-])OCC[N+](C)(C)C)OC(=O)CCCCCCCCCCCCCCC [18:1/16:0-GPC, 1-oleoyl-2-palmitoyl-sn-glycero-3-phosphocholine, reference compound]
expression of PPARα-dependent genes ACO and CPT-I: does not induce PPARα-dependent gene expression
